# Reference: PubChem BioAssay (NCI)
#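 Five compound concentrations were applied to cells in 96-well plates for 48 hours; endpoints were derived by simple linear interpolation of the resulting dose-response curve. GI50 is the concentration that inhibits growth by half. TGI denotes the concentration required for complete inhibition of growth.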
# Test system: SF-539 CNS
# Assay: inhibition of tumour cell growth, NCI panel, 48 h
Compound,GI50 [µM],TGI [µM]
CC(C)(C)CN1CCn2c(nc3c(N)nccc32)S1,18.2,78.9
COc1ccc2c(c1)OC1=C(C(=O)OC1)C2c1cc(OC)c2c(c1)OCO2 (stereo not given),0.0333,> 100
Cc1c(C2=C(c3cn(C)c4ccccc34)C(=O)NC2=O)c2ccccc2n1C,0.921,> 6.77
CC1(C)CCC[C@]2(C)[C@@H](C=O)C(C=O)=CC[C@@H]12,–,53.3
CCn1c2ccccc2c2cc(/C=C(/C#N)C(N)=O)ccc21,–,6.61
COc1ccc(C(=O)N2c3ccccc3Sc3ccccc32)c(OC)c1,0.333,4.37
CN1CCN(CC(O)COc2c(Br)c(Br)c(Br)c3c2OC(C)(C)C3)CC1 (stereo not given),3.21,13.5
CCN1C(=O)N(CC)C2C1NN=c1s/c(=C3\C(=O)N(CCc4ccccc4)c4ccccc43)c(=O)n12 (stereo not given),0.228,0.643

# Test system: SK-MEL-2 melanoma
# Assay: inhibition of tumour cell growth, NCI panel, 48 h
Compound,GI50 [µM],TGI [µM]
CC(=O)c1c(C(F)(F)F)n([O-])c2ccc(C)cc2[n+]1=O,15.5,> 66.5
COc1ccc(/C=N/NC(=O)Cn2c(-c3ccc(S(C)(=O)=O)cc3)nc3cc(Cl)ccc32)cc1,1.13,> 50
COc1cc2c(c(OC)c1OC)-c1ccc(SC)c(=O)cc1[C@@H](NC1OC(CO)C(O)C(O)C1O)CC2 (stereo not given in full),0.0237,0.081
CCOc1nc(N)nc(C)c1N=Nc1ccc(Cl)cc1,–,> 100
CCN(Cc1ccc(Cl)s1)c1ccc(CO)c(Cl)c1,2.02,13.7
Nc1ccccc1SCc1csc(-c2ccc(Cl)cc2)n1,–,35.2
CSC(=S)N/N=C(\C)c1cccc(C)n1,–,16.5
N#Cc1c(N)[nH]c2ccc(Sc3ccccc3)cc12,–,17.5
COc1ccc(OC)c(C2SCC(=O)N2NC(=O)C(O)c2ccccc2)c1 (stereo not given),> 100,> 100
CCN1C(=O)N(CC)C2C1NN=c1s/c(=C\c3ccccc3Br)c(=O)n12 (stereo not given),0.308,25.5
O=C(O)COc1c(Cl)cc(Cl)c2cccnc12,–,> 100
CC(C)(C)c1ccc(C(=O)Nc2sc3c(c2C(N)=O)CCC(=O)C3)cc1,1.9,4.73
O=C(Nc1cccc(Nc2ncc(Br)c(NCCc3cnc[nH]3)n2)c1)N1CCCC1,5.31,19.4
C[C@@H]1O[C@@H](O[C@H]2CC[C@@]3(C)[C@H](CCC4[C@@H]3C(O)C[C@]3(C)[C@@H](c5ccc(=O)oc5)CC[C@]43O)C2)[C@H](O)[C@H](O)[C@H]1O (stereo not given in full),0.00741,0.0163
Cc1ccc(C2=Nc3ccccc3SC(c3cccc([N+](=O)[O-])c3)C2)cc1 (stereo not given),–,> 100
CN1CCC(n2cnc(-c3ccc(F)cc3)c2-c2ccnc(N)n2)CC1,> 25,> 25
COc1cc(/C=C/[N+](=O)[O-])cc(Br)c1OC,2.67,5.71
CN(CC(N)=O)C(=O)N(CCCl)N=O,–,> 100
Cc1ccc(NC(=O)c2ccccc2C(=O)O)cc1C,–,> 100
CC(C)=CCC/C(C)=C/CC/C(C)=C/CC/C=C(\C)CC/C=C(\C)CCC(=O)Nc1ccn(C2OC(CO)C(O)C2(F)F)c(=O)n1 (stereo not given),0.0183,1.28
COc1ccc(-c2cc(=O)c3c(OC)c(OC)c(OC)c(OC)c3o2)cc1,–,> 100
CC(C)(C)CN1CCn2c(nc3c(N)nccc32)S1,69.3,> 100
COc1ccc2c(c1)OC1=C(C(=O)OC1)C2c1cc(OC)c2c(c1)OCO2 (stereo not given),0.0405,> 100
Cc1c(C2=C(c3cn(C)c4ccccc34)C(=O)NC2=O)c2ccccc2n1C,1.93,24.3
CC1(C)CCC[C@]2(C)[C@@H](C=O)C(C=O)=CC[C@@H]12,–,39.7
CCn1c2ccccc2c2cc(/C=C(/C#N)C(N)=O)ccc21,11.4,> 60.4
COc1ccc(C(=O)N2c3ccccc3Sc3ccccc32)c(OC)c1,0.585,> 100
CN1CCN(CC(O)COc2c(Br)c(Br)c(Br)c3c2OC(C)(C)C3)CC1 (stereo not given),10.2,25.2
